Series [1] deals with T1, Bovine serum albumin (Fraction V) (Bos taurus, UniProt P02769).
T1 construct: Bovine serum albumin (Fraction V) (Sigma); purchased Sigma
As to the kind of experiment: Binding to BSA (incubation, HPLC-UV/MS). The conditions noted are these: compound and BSA 1 mM each, 30 minutes at room temperature. The format is in vitro ADME. On the procedure: The compounds (working solution at 1 mM) were incubated during 30 minutes at room temperature with Glutathione (Sigma) and Bovine serum albumin (Fraction V) (Sigma) at equimolecular concentrations (1 mM). After this time the solution was filtrated and analysed by HPLC-UV/MS.
HPLC was performed with a symmetry C18 (2.1×150 mm, 3.5 μm) column using a Waters Alliance 2695 with a 2996 photodiode array and ZQ2000 mass spectrometer used for the analytical separation and for UV and mass determination. The gradient used for the elution was: […]
Flux: 0.25 mL/min; temp: 30° C.; Detection: 250 nm; Injection Volume: 10 μL

For series [2], the target named is Recombinant human glycogen synthase kinase 3β (Homo sapiens, UniProt P49841). Kind of series: GSK-3β inhibition. The format is biochemical. As to conditions: recombinant human GSK-3β, GS-2 62.5 μM, ATP 12.5 μM, 30 min at 30° C. The method, then: The GSK-3β activity was determined by incubation of a mixture of recombinant human GSK-3 enzyme, a phosphate source and GSK-3 substrate in the presence and in the absence of the corresponding test compound, and by measuring the GSK-3 activity of this mixture.
Recombinant human glycogen synthase kinase 3β, sequence (P49841 whole entry): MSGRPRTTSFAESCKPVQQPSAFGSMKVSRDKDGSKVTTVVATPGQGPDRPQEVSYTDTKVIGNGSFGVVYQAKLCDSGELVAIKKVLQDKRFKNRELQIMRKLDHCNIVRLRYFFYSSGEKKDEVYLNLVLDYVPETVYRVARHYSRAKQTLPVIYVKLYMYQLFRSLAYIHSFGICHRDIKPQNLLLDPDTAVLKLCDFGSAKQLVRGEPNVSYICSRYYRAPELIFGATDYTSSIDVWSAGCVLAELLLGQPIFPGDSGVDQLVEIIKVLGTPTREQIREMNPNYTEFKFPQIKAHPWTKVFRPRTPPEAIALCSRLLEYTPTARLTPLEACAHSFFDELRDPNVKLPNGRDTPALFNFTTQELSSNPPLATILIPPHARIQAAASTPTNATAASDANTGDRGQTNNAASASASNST
The final assay volume was 20 μl. After incubation for 30 minutes at 30° C., 15 μl aliquots were spotted onto P81 phosphocellulose papers. Filters were washed four times for at least 10 minutes each and counted with 1.5 ml of scintillation cocktail in a scintillation counter.

The nature of series [3]: Brain permeation and pharmacokinetics after oral and intravenous administration. The format is in vivo, C57/BL6 mice. The conditions noted are these: mice. The method, then:
C57/BL6 mice (15-30 g) from Charles River laboratories Spain were used in this study. […] Water was available ad libitum. Animals were fasted for 4 hours before treatment, but with water ad libitum. They were fed 2 hours after administration.
The route of administration was a single oral administration at […] (10 mL/kg) and single intravenous administration at 2 mg/kg (10 mL/kg). An additional experiment was performed at 200 mg/kg by the oral route only to determine proportionality of absorption.
Blood was heparinized, and after centrifugation (3000 rpm, 10 mins, 5° C.), two plasma aliquots stored at −20° C. and −30° C. until analysis (HPLC/MS-MS).

Experimental findings from patent US8158661B2, “GSK-3 inhibitors” (Noscira, S.A., priority 2004, dated 2012) are described below.

Each structure is given as a SMILES string.

T1 sequence (P02769 25-607): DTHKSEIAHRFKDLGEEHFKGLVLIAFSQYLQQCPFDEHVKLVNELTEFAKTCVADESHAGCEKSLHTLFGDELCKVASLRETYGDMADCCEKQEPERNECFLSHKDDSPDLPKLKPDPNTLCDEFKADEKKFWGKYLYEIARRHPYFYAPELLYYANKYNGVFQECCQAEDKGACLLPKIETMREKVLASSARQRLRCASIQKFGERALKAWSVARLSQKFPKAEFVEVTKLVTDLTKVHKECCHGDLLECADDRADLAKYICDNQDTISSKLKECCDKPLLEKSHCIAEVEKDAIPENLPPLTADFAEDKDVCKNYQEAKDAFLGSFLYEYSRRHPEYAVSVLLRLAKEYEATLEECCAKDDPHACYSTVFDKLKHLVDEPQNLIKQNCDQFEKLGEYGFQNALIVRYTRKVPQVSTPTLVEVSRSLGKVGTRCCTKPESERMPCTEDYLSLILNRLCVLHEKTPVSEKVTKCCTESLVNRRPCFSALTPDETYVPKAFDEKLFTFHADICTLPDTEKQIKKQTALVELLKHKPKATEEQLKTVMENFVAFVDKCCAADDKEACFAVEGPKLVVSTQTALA

`O=c1sn(Cc2ccccc2)c(=O)n1Cc1ccccc1` [2,4-dibenzyl-1,2,4-thiadiazolidine-3,5-dione, reference compound]: the “% unbinding compound, albumin” value in series [1] is listed as 57.0%.
For `O=c1sn(CCc2ccccc2)c(=O)n1Cc1ccccc1` [Compound 1, 2-Phenethyl-4-benzyl-(1,2,4)thiadiazolidine-3,5-dione], the “% unbinding compound, albumin” value in series [1] is 80.2%. Also, the IC50 in series [2] came to 3 µM.
`O=c1sn(-c2cccc3ccccc23)c(=O)n1Cc1ccccc1` [Compound 2, 4-Benzyl-2-naphthalen-1-yl-[1,2,4]thiadiazolidine-3,5-dione]: in series [1], the “% unbinding compound, albumin” value came out at 98.0%. In series [3] (both sexes, C57/BL6, mouse, plasma, oral 20 mg/kg vs intravenous 2 mg/kg), this compound returned a bioavailability of 31.9%. Besides, in series [3] (both sexes, C57/BL6, mouse, plasma, oral administration of 20 mg/kg), the half-life was 360 min. The Cmax in series [3] (both sexes, C57/BL6, mouse, single oral dose 20 mg/kg, plasma) worked out at 905 ng/mL; in series [3] (both sexes, C57/BL6, mouse, single oral dose 200 mg/kg, plasma), 9060 ng/mL. Moreover, the “Absorption from the GI tract” value in series [3] (after oral administration) is recorded as “quickly absorbed”. Also, the “Levels in the brain” value in series [3] (both after oral and intravenous administration) was “detected in the brain”.
`O=c1sn(C23CC4CC(CC(C4)C2)C3)c(=O)n1Cc1ccccc1` [Compound 3, 2-(1-adamantyl)-4-benzyl-[1,2,4]thiadiazolidine-3,5-dione] registered a melting point of 128.8 °C. Moreover, in series [1], the “% unbinding compound, albumin” value was determined as 54.0%. In series [2], the IC50 was greater than 50 µM.
In the case of `Cc1ccc(Cn2sc(=O)n(Cc3ccccc3)c2=O)cc1` [Compound 4, 4-Benzyl-2-(4-methyl-benzyl)-[1,2,4]thiadiazolidine-3,5-dione], in series [1], the “% unbinding compound, albumin” value was 67.2%. Besides, the IC50 in series [2] stood at 1.8 µM.
Regarding `O=c1sn(-c2ccc3c(c2)OCO3)c(=O)n1Cc1ccccc1` [Compound 5, 4-Benzyl 2-((3,4-methylenedioxy)phenyl)-[1,2,4]thiadiazolidine-3,5-dione], the “% unbinding compound, albumin” value in series [1] stood at 65.5%. Besides, the 50% inhibitory concentration (IC50) in series [2] is 4.2 µM.
The compound `O=c1sn(C(c2ccccc2)c2ccccc2)c(=O)n1Cc1ccccc1` [Compound 6, 4-Benzyl-2-diphenylmethyl-1,2,4-thiadiazolidine-3,5-dione] registered a melting point of 111.5 °C. In addition, the “% unbinding compound, albumin” value in series [1] turned out to be 84.0%. Also, the IC50 in series [2] is 2 µM.
With `COc1ccc(Cn2sc(=O)n(Cc3ccccc3)c2=O)cc1` [Compound 7, 4-Benzyl-2-(4-methoxybenzyl)-[1,2,4]thiadiazolidine-3,5-dione], the “% unbinding compound, albumin” value in series [1] is 68.3%. The IC50 in series [2] is less than 50 µM.
The compound `Cc1cccc(C(C)(C)C)c1-n1sc(=O)n(Cc2ccccc2)c1=O` [Compound 8, 4-Benzyl-2-(2-tert-butyl-6-methyl-phenyl)-(1,2,4)thiadiazolidine-3,5-dione] gave a melting point of 89.8 °C. Also, in series [1], the “% unbinding compound, albumin” value came to 62.3%. Also, in series [2], the IC50 amounted to 3 µM.
For the compound `O=c1sn(-c2ccccc2Cc2ccccc2)c(=O)n1Cc1ccccc1` [Compound 9, 4-Benzyl-2-(2-benzyl-phenyl)-[1,2,4]thiadiazolidine-3,5-dione], the melting point worked out at 154.9 °C. The “% unbinding compound, albumin” value in series [1] is 91.4%. For the same compound, the IC50 in series [2] is 8 µM.
Consider `O=c1sn(-c2ccc(Oc3ccccc3)cc2)c(=O)n1Cc1ccccc1` [Compound 10, 4-Benzyl-2-(4-phenoxyphenyl)-[1,2,4]thiadiazolidine-3,5-dione], for which the melting point amounted to 88.8 °C. Besides, in series [1], the “% unbinding compound, albumin” value is on record as 98.9%. For the same compound, the IC50 in series [2] stood at 3 µM.
